Experimental data from patent US20060210659A1, “Anti-obesity agent” (priority 2005, published 2006).

Assay: Lipid-absorption suppressive activity: plasma triglyceride after oral salad oil tolerance
Assay type: in vivo, male ddy line mice
Experimental: (§1) Orbital blood collection from male ddy line mice of six weeks old (six animals per group) was carried out, and then 10 mL/kg of water or 0.1 g/kg of aqueous actein solution was orally administrated to each of them. After 30 minutes, 10 mL/kg of salad oil was orally administrated, orbital blood collection was performed after 180 minutes again, and blood plasma was separated to measure the triglyceride level.
as §1, with “0.2 g/kg or 1.0” for “0.1”, “aqueous” for “aqueous actein”, “solution of Black cohosh extract (Example 1)” for “solution”, “administrated.” for “administrated to each of them.”

With `CC(=O)O[C@@H]1C[C@@]23C[C@@]24CC[C@H](O[C@@H]2OC[C@@H](O)[C@H](O)[C@H]2O)C(C)(C)[C@@H]4CC[C@H]3[C@]2(C)C[C@@H]3O[C@]4(C[C@@H](C)[C@@H]3[C@@]12C)O[C@H](O)[C@@]1(C)O[C@@H]41` [actein] the “Triglyceride level in blood plasma, before salad oil administration” value (0.1 g/kg actein oral group, baseline blood collected before dosing, mean ± SD, six animals) was 110.4 ± 22.2 mg/dL, the “Triglyceride level in blood plasma, after 180 minutes” value (0.1 g/kg actein oral, 30 min before 10 mL/kg salad oil, 180 min after oil, mean ± SD) was 248.6 ± 27.8 mg/dL and the “Triglyceride level in blood plasma after 180 minutes of salad oil tolerance (in words)” value (0.1 g/kg actein oral, vs water group) was “significantly suppressed”.
